Laboratory results from BindingDB's records for doi:10.1021/jm3016848 (Ikerchem, 2013).

Assay: Inhibition of LFA-1/ICAM-1 interaction in mouse Lim51b cells assessed as PMA-induced adhesion to ICAM-1 expressing HSE cells measured per 10^5 cells after 30 mins by fluorometric microplate reader analysis

- IC50: 27.6 µM
Compound: CC[C@H](C)[C@H](OCc1ccccc1)[C@H]1[C@H]([N+](=O)[O-])[C@H](c2ccccc2)N[C@]1(C)C(=O)NCCC(=O)O
